ChEMBL document CHEMBL1122684, “The 3,4-catechol derivative of propranolol, a minor dihydroxylated metabolite” (J Med Chem, 1984)
Where a name gives a salt, the structure may show the parent alone.

Tests used:
[1] = target: Beta-2 adrenergic receptor (Rattus norvegicus) (UniProt P10608); assay: Compound was evaluated for competitive antagonism of beta-2 adrenergic receptor in rat uterus measured as pA2 (-log KB)
[2] = target: Beta-1 adrenergic receptor (Cavia porcellus, UniProt B0FL73); assay: Compound was evaluated for competitive antagonism of beta-1 adrenergic receptor in guinea pig atria measured as pA2 (-log KB); assay type: functional; conditions: read-out: pA2 (converted)
Beta-1 adrenergic receptor, sequence (B0FL73 whole entry): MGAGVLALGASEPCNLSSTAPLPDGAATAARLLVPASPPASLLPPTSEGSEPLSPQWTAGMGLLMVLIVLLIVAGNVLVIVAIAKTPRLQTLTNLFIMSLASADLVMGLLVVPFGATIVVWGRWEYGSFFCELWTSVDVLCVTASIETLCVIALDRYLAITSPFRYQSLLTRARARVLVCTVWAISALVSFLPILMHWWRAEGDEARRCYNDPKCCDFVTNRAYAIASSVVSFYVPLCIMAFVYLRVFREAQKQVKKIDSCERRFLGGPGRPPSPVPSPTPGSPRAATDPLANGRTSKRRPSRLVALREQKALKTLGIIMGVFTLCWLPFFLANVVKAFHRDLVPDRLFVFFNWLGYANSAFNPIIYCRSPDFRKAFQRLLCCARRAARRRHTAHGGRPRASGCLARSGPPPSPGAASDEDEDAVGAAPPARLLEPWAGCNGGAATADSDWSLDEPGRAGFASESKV

Beta-2 adrenergic receptor (Rattus norvegicus), sequence (P10608 whole entry, looked up): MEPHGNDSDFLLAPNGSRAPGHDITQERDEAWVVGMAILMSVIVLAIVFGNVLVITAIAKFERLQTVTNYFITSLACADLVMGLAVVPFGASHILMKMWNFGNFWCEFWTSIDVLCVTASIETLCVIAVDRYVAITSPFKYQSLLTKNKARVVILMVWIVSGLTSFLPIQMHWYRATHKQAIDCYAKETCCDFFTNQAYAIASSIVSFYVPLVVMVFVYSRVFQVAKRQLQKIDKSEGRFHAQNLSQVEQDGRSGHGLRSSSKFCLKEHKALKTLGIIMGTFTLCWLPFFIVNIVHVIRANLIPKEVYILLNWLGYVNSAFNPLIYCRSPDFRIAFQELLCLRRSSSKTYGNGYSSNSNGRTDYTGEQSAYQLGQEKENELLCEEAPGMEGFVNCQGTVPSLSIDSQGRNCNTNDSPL

Row | Kb [1] [nM] | Kb [2] [nM] | Compound
1 | 29.5 | 50.1 | CC(C)NCC(O)COC1=CC(=O)C(=O)c2ccccc21 (centres undefined)
2 | 2.4 | 5.75 | CC(C)NCC(O)COc1ccc(O)c2ccccc12 (centres undefined) [4-HYDROXYPROPRANOLOL SULFATE]
